Where “and” joins values, the source holds several entries; their conditions need not be identical. Equal entries are not always repeated.
Columns and labels:
[1] = tested on: eIF4E WT or mutant expression; test: Immunoblot of eIF4E rescue construct expression; assay type: cell-based, human; conditions: n=3
Source text: Supplementary Fig. 17. Transfection of wild type eIF4E or a series of mutants […]
clone. a Scheme of the workflow to generate genetic rescue models by expression of wild type (WT) eIF4E or mutant eIF4E in the dTAG eIF4E CRISPR clones (Created in BioRender. Powers, M. (2024) https://BioRender.com/q02f176). b Representative […]
replicates). Vinculin was used as a loading control. The immunoblots were cropped to […]
(1 picture or pasted object on this page, not shown here) […]
aid interpretation of the data, original immunoblot images for all repeats are available in the Supplementary Source Data. d Quantification of MCL1 immunoblot signals using Image J. Results are expressed as % MCL-1 normalized to vinculin (mean ± SEM from (c) plus 2 additional biological replicates (see Supplementary Source Data).
Significance (p<0.05) was determined using a one sample t-test (two-tailed) comparing treatment with the control from each cell line. Significance was observed […]
p=0.0153) expressing cells. p values are denoted as *p<0.05, **p<0.01, ***p<0.001, […]
and f 16 hr from (c), using Image J. A one sample t -test was performed for each cell treatment compared to their control and found no significant differences for either tim e point (p>0.05) . Comparison of the control conditions for expression of each mutant with the overexpressed WT using an ordinary one-way ANOVA with Tukey multiple comparisons test found all mutants p<0.001 except S209A (p=0.0337) at 6 hr and all

eIF4E L85R = target: T1, eIF4E L85R (Homo sapiens, UniProt P06730, L85R); test: CETSA in eIF4E-dTAG model expressing L85R eIF4E; assay type: cell-based; conditions: intact cells
T1 construct: expressed in transfected cells; host or cells: H1299 eIF4E-dTAG clone C3-1, eIF4E-dTAG depleted with dTAG^V-1 before compound
Description: (§1) Cells (1.5 × 10^6 cells) were plated into 75 cm^2 flasks and allowed to attached overnight. After treatment with compound 4 or 5 for 6 h, they were harvested by trypsinisation and washed x2 in ice cold PBS. Cells were resuspended in 1 ml of cold PBS supplemented with protease and phosphatase inhibitors (Fisher Scientific, cat#1861281). Resuspended cells were divided into 100 μl aliquots and centrifuged at 300 x g for 3 min at 4 °C. Following centrifugation, 75μl of supernatant was removed and cells resuspended in the remaining volume. Cell suspensions were heated at 40.9, 43.7, 48.1, 52.9, 57.6, 62.4, 67.2, 71.9, 76.3 and 79.1 °C for 3 mins followed by cooling at 20 °C for 3 min[25]. Suspensions were freeze-thawed twice using liquid nitrogen. Soluble fractions were separated from cell debris by centrifuging at 20,000 x g for 30 min at 4 °C. Samples were then analysed by Western Blot.
(§2) Supplementary Fig. 18. Comparison of compound 4 binding to wild-type or […]
(§3) Cells were treated with dTAGV-1 (1 μM) for 16 hr. Compound 4 (10 μM) or compound 5 (10 μM) was then added for 6 hrs.
(§4) Vi nculin was used for loading control. Blots are from one biological repeat. b […]
(§5) was used as loading control . c Cells were treated with dTAGV -1 (1 μM) for 16 hr.
(§6) Compound 4 (50 μM) or compound 5 (50 μM) was then added for 6 hrs. […]
(§7) following incubation at 48.1 °C. Vinculin was used for loaing control. All blots are […]

eIF4E:eIF4G interaction = eIF4E:eIF4G interaction (Homo sapiens, UniProt P06730); test: Electro-chemiluminescent binding assay, eIF4E:eIF4G, SW620 cell lysates; assay type: biochemical; design: endogenous in cells; host or cells: SW620 cells (lysates); conditions: for eIF4G:eIF4E luminescence signal normalised to DMSO control: SW620, Expt 1, Expt 2, Fig. 4d
Description: This assay uses plates with carbon electrodes and electro-chemiluminescent labels (SULFO-TAGs) that are conjugated to detection antibodies. When an electric current is applied to the plate electrodes the SULFO-TAG labels will emit light that is measured to quantify analytes in the sample. […] The plates were washed with 3 ×150 µl/well MSD wash buffer (cat#R61AA-1; 0.2% Tween-20 in PBS), then blocked with 150 µl/well block buffer (MSD, cat# R93AA) for 1 h. […] The incubated plates were washed 4x in 150 µl in MSD wash buffer and were re-blocked by the addition of 25 μl of blocking buffer containing a 1:500 dilution of the secondary antibody and incubated for 1 hr at RT with rotational shaking. […] Plates were then washed again 4x in 150 µl in MSD wash buffer and 25 μl of a 1:50 dilution of Goat anti-rabbit Sulfo-Tag (MSD, Cat# R32AB-1) in MSD blocking buffer was added and the plates incubated for 1 h at RT with rotational shaking. After a final wash step, 150 μl Read Buffer T4X (MSD, Cat# R92-TC2) was added and the plate read using the MSD QuickPlex SQ 120 plate reader.

[2] = tested on: cap-dependent and cap-independent (IRES) protein synthesis; test: Bicistronic protein synthesis reporter in HEK293 cells; assay type: cell-based, human; conditions: for Cap translation, Average / IRES, Average: HEK293, n=3; for Cap translation, Average: cap-dependent luciferase reporter; for IRES, Average: cap-independent luciferase driven by viral IRES
Description: Supplementary Fig. 10 Determination of the effects of compound 4 on protein synthesis and viability. a HEK293 cells were transfected with protein synthesis reporter expressing bicistonic mRNA with a cap-dependent luciferase reporter and a cap-independent luciferase driven by a viral IRES. Cells were treated with 1 or 10 µM […]
with compound 4 for 24 hr. […]
Source data is located in the Supplementary Source Data file

eIF4E W73F = target: T2, eIF4E W73F (Homo sapiens, UniProt P06730, W73F); test: CETSA in eIF4E-dTAG model expressing W73F eIF4E; assay type: cell-based; conditions: intact cells
T2 construct: expressed in transfected cells; host or cells: H1299 eIF4E-dTAG clone C3-1, eIF4E-dTAG depleted with dTAG^V-1 before compound
Description: as §1, §2, §3, §4, §5, §6, §7

eIF4E:eIF4G interaction, sequence (P06730 2-217 limits assumed): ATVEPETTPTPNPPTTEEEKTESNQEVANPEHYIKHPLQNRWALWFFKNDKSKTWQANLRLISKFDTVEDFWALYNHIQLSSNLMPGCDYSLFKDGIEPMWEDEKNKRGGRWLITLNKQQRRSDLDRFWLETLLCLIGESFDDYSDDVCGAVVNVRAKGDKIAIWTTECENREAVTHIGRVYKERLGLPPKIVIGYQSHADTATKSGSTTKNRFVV
T2 sequence (P06730 whole entry W73F): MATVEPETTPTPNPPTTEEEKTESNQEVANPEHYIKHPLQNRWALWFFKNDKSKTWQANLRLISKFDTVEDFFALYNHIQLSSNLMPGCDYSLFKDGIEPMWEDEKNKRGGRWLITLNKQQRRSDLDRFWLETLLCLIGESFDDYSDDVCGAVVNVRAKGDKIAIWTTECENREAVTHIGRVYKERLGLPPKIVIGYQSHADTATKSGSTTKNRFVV
T1 sequence (P06730 whole entry L85R): as the sequence (P06730 whole entry W73F) above, with F73W, L85R counted along it

CC[C@H](C(=O)N1CCCC[C@H]1C(=O)O[C@H](CCc1ccc(OC)c(OC)c1)c1ccccc1OCC(=O)NCCCCCCC(=O)N[C@H](C(=O)N1C[C@H](O)C[C@H]1C(=O)N[C@@H](C)c1ccc(-c2scnc2C)cc1)C(C)(C)C)c1cc(OC)c(OC)c(OC)c1 [dTAG^V-1]
Quantification of eIF4E (6 hr) normalised to WT expression, Average ([1]; C3-1, 0.5 uM): 0.00 | Quantification of eIF4E (16 hr) normalised to WT expression, Average ([1]; C3-1, 0.5 uM): 0.00 | Quantification of eIF4E (6 hr) normalised to WT expression, Average ([1]; C3-1, 1 uM): 0.00 | Quantification of eIF4E (16 hr) normalised to WT expression, Average ([1]; C3-1, 1 uM): 0.00 | Quantification of eIF4E (6 hr) normalised to WT expression, Average ([1]; L85R, 0.5 uM): 51.11 | Quantification of eIF4E (16 hr) normalised to WT expression, Average ([1]; L85R, 0.5 uM): 19.14 | Quantification of eIF4E (6 hr) normalised to WT expression, Average ([1]; L85R, 1 uM): 46.78 | Quantification of eIF4E (16 hr) normalised to WT expression, Average ([1]; L85R, 1 uM): 21.33 | Quantification of eIF4E (6 hr) normalised to WT expression, Average ([1]; L134R, 0.5 uM): 32.49 | Quantification of eIF4E (16 hr) normalised to WT expression, Average ([1]; L134R, 0.5 uM): 17.61 | Quantification of eIF4E (6 hr) normalised to WT expression, Average ([1]; L134R, 1 uM): 23.94 | Quantification of eIF4E (16 hr) normalised to WT expression, Average ([1]; L134R, 1 uM): 19.17 | Quantification of eIF4E (6 hr) normalised to WT expression, Average ([1]; S209A, 0.5 uM): 94.19 | Quantification of eIF4E (16 hr) normalised to WT expression, Average ([1]; S209A, 0.5 uM): 103.66 | Quantification of eIF4E (6 hr) normalised to WT expression, Average ([1]; S209A, 1 uM): 88.26 | Quantification of eIF4E (16 hr) normalised to WT expression, Average ([1]; S209A, 1 uM): 106.16 | Quantification of eIF4E (16 hr) normalised to WT expression, Average ([1]; W56A, 0.5 uM (Conc column empty, by row)): 63.22 | Quantification of eIF4E (6 hr) normalised to WT expression, Average ([1]; W56A, 0.5 uM): 56.71 | Quantification of eIF4E (16 hr) normalised to WT expression, Average ([1]; W56A, 1 uM (Conc column empty, by row)): 50.88 | Quantification of eIF4E (6 hr) normalised to WT expression, Average ([1]; W56A, 1 uM): 52.12 | Quantification of eIF4E (6 hr) normalised to WT expression, Average ([1]; W73F/L85R, 0.5 uM): 30.95 | Quantification of eIF4E (16 hr) normalised to WT expression, Average ([1]; W73F/L85R, 0.5 uM): 15.77 | Quantification of eIF4E (6 hr) normalised to WT expression, Average ([1]; W73F/L85R, 1 uM): 30.11 | Quantification of eIF4E (16 hr) normalised to WT expression, Average ([1]; W73F/L85R, 1 uM): 16.64 | Quantification of eIF4E (6 hr) normalised to WT expression, Average ([1]; W73F, 0.5 uM): 72.55 | Quantification of eIF4E (16 hr) normalised to WT expression, Average ([1]; W73F, 0.5 uM): 42.45 | Quantification of eIF4E (6 hr) normalised to WT expression, Average ([1]; W73F, 1 uM): 71.88 | Quantification of eIF4E (16 hr) normalised to WT expression, Average ([1]; W73F, 1 uM): 30.23 | Quantification of eIF4E (6 hr) normalised to WT expression, Average ([1]; WT, 0.5 uM): 100.00 | Quantification of eIF4E (16 hr) normalised to WT expression, Average ([1]; WT, 0.5 uM): 100.00 | Quantification of eIF4E (6 hr) normalised to WT expression, Average ([1]; WT, 1 uM): 100.00 | Quantification of eIF4E (16 hr) normalised to WT expression, Average ([1]; WT, 1 uM): 100.00

CC[C@H](O[C@H](C)CO)c1ccc(-c2ccccc2F)cc1NCCO [Compound 4]
thermal stabilisation of L85R eIF4E (eIF4E L85R): showed evidence for compound 4 binding | eIF4G:eIF4E luminescence signal normalised to DMSO control (eIF4E:eIF4G interaction; 0.4 μM): 89% and 92.6% | eIF4G:eIF4E luminescence signal normalised to DMSO control (eIF4E:eIF4G interaction; 4 μM): 47.4% and 46.9% | eIF4G:eIF4E luminescence signal normalised to DMSO control (eIF4E:eIF4G interaction; 12 μM): 33.5% and 31.6% | eIF4G:eIF4E luminescence signal normalised to DMSO control (eIF4E:eIF4G interaction; 40 μM): 20.4% and 20.8% | eIF4G:eIF4E SW620, luminescence ratio normalised to DMSO control (eIF4E:eIF4G interaction; SW620 lysates, 100 µM, 30 min, single experiments Expt 1, Expt 2): 23% and 19% | EC50 (eIF4E:eIF4G interaction; read-out: EC50, eIF4G binding to eIF4E, SW620 cell lysates, 30 min): 2.6 µM | Cap translation, Average ([2]; 1μM): 87.46 | IRES, Average ([2]; 1μM): 89.67 | Cap translation, Average ([2]; 10μM): 74.14 | IRES, Average ([2]; 10μM): 83.90 | inhibitory activity in dual reporter assay ([2]; HEK293 cells, 1 or 10 µM, 24 hr): lacked inhibitory activity | thermal stabilisation of W73F eIF4E (eIF4E W73F): destabilised, rather than stabilised
